Source: patent US10718769B2, “Compounds comprising one or more hydrophobic domains and a hydrophilic domain comprising peg moieties, useful for binding cells” (Roche Diagnostics Operations, Inc., priority 2013, dated 2020)
Values joined by “and” are separate entries in the source; they are usually repeats but may differ in a detail not shown here. Equal values may be shown once. Read-outs that look alike come from different tables or passages of the source.

Tests used:
Jurkat cells = details: centrifugation 20 min, 500×g; within 5.5 h incubation with molecule
Procedure: Respective columns from left: 1: 10 min incubation with molecule. 2: 1 h incubation with molecule. 3: 3,5 h incubation with molecule. 4: 5.5 h min incubation with molecule. Following molecules were tested: 1255: 3′-(Myristic acid)2-PEG2000-dT-Biotin-TEG-5′ INVERS. 1234: 5′-(Cholesteryl-TEG)2-Spacer C18-dT-Biotin-TEG-3′; 1248: 3′-(Cholesteryl-TEG)2-PEG2000-Fluos-Biotin-TEG-5′ INVERS; 1254: 3′-(Cholesteryl-TEG)2-SpacerC18-Fluos-Biotin-TEG-5′ INVERS. […] Centrifugation characteristics: 20 min, 500×g.
(§1) Following molecules were tested: • 1255: 3′-(Myristic acid)2-PEG2000-dT-Biotin-TEG-5′ INVERS • 1234: 5′-(Cholesteryl-TEG)2-Spacer C18-dT-Biotin-TEG-3′ • 1248: 3′-(Cholesteryl-TEG)2-PEG2000-Fluos-Biotin-TEG-5′ INVERS • 1254: 3′-(Cholesteryl-TEG)2-SpacerC18-Fluos-Biotin-TEG-5′ INVERS
Centrifugation characteristics: 20 min, 500×g.

white blood cells (WBCs) = details: for WBC per well: 300 000 WBCs/well
Procedure: Aim of this experiment: Testing of the white blood cell immobilization on a streptavidin-coated surface using different molecules of the invention. In particular, the performance of a single cholesterol-molecule and different dual-linker molecules (i.e. containing two hydrophobic moieties) was tested. In detail, immobilization of white blood cells (WBCs) on a Streptavidin-coated surface using different linker molecules was tested on a 12-well plate: 300 000 WBCs/well. This was followed by the measurement of the cell recovery rate after immobilization and washing of the cells using the Cellavista instrument (10× Nuclei Operator s9s5).

WBC (white blood cells) = details: for MW (mean WBC per well): target: 300.000 WBC
Procedure: 4× determination. Row A: 200 μl PBS introduced, 1 nmol of compound added thereto respectively, mixed, incubated about 30 min, washed 2×PBS, 800 μl PBS introduced, 300.000 WBC (untreated) added. Row B: 800 μl PBS introduced, 300.000 WBC (untreated) added. Row C: 10×10^6 WBC in 1 ml with 10 nmol compound of invention 10 min incubated, 800 μl PBS/Well introduced, 300.000 treated WBC respectively. The first MTP plate washed after 30 min 2× with PBS, overlayed with Höchst and incubated for 15 min.>Cellavista (Operator s9s5) measured. The second plate was measured after 90 min. The third plate was measured after 150 min.
The experiments were performed for different incubation times, as shown below:
As starting material 5′-(Cholesteryl-TEG)2-PEG2000-Fluos-Biotin_TEG-3′ INVERS
(14530 pmol/μl) (Internal Reference No.: 29.891250), and a streptavidin treated MTP (Microcoat), 12 Well plate were used.
Erythrocyte lysis was performed as follows:
EDTA-whole blood 59.423 6.400 WBC/μl (Ambulanz Roche)
lysis buffer: 100 mM NH4Cl+5 mM Hepes+0.5 mM KHCO3+0.1 mM EDTA-K
Ca 1×8 ml whole blood filled in 50 ml Falcon tube with lysis buffer, incubate at room temperature for 10 min
15 min at 250 g centrifugated, pellet resuspended by pipetting in and out in lysis buffer; filled to 50 ml with lysis buffer
15 min 250 g centrifugated, pellet resuspended with PBS, filled to 50 ml with PBS, 15 min 250 g centrifugated, filled to 50 ml with PBS
The design of the experiment on the plate is explained below (see FIG. 2):
3×12 Well MTP: Treatment of the WBC with compounds of the invention:
Row A: 200 μl PBS introduced, 1 nmol of compound added thereto respectively, mixed, incubated about 30 min, washed 2×PBS,
800 μl PBS introduced, 300.000 WBC (untreated) added.
Row B: 800 μl PBS introduced, 300.000 WBC (untreated) added.
Row C: 10×10^6 WBC in 1 ml with 10 nmol compound of invention 10 min incubated, 800 μl PBS/Well introduced, 300.000 treated WBC respectively.
The first MTP plate washed after 30 min 2× with PBS, overlaid with Höchst and incubated for 15 min.>Cellavista (Operator s9s5) measured.
The second plate was measured after 90 min.
The third plate was measured after 150 min.

WBCs = test: Labelling of cells using compounds of the invention; format: cell-based
Source text: (§2) 2. Labelling of Cells Using Compounds of the Invention

MDA-MB468 = test: as above; format: cell-based
Source text: as §2

Epithelial cells = test: as above; format: cell-based
Source text: as §2

U937 = test: as above; format: cell-based
Source text: as §2

WBC = WBC recovery rate after centrifugation (stabilization of cells, Example 5); format: cell-based; details: centrifugation 10 min, 300×g
Procedure: (§3) Centrifugation characteristics: 10 min, 300×g.
as §3
The respective left, middle and right columns per assay represent different Experimenters 1, 2 and 3. […] Centrifugation characteristics: 10 min, 300×g. Molecule: Cholesteryl-TEG-Cholesteryl-TEG-(SpacerC18)7-Fluos-Biotin-TEG.
(§4) Following molecules were tested: 1234: 5′-(Cholesteryl-TEG)2-Spacer C18-dT-Biotin-TEG-3′; 1248: 3′-(Cholesteryl-TEG)2-PEG2000-Fluos-Biotin-TEG-5′ INVERS; 1254: 3′-(Cholesteryl-TEG)2-SpacerC18-Fluos-Biotin-TEG-5′ INVERS; 1255: 3′-(Myristic acid)2-PEG2000-dT-Biotin-TEG-5′ INVERS. […] Centrifugation characteristics: 20 min, 300×g. Respective left column: 10 min incubation with molecule. Respective middle column: 1 h min incubation with molecule. Respective right column: 2 h incubation with molecule.
Following molecules were tested: 1255: 3′-(Myristic acid)2-PEG2000-dT-Biotin-TEG-5′ INVERS; 1234: 5′-(Cholesteryl-TEG)2-Spacer C18-dT-Biotin-TEG-3′; 1248: 3′-(Cholesteryl-TEG)2-PEG2000-Fluos-Biotin-TEG-5′ INVERS; 1254: 3′-(Cholesteryl-TEG)2-SpacerC18-Fluos-Biotin-TEG-5′ INVERS. […] Centrifugation characteristics: 20 min, 500×g. Respective left column: 10 min incubation with molecule. Respective middle column: 1 h min incubation with molecule. Respective right column: 3 h incubation with molecule.
as §4, with “tested: 1255: 3′-(Myristic acid)2-PEG2000-dT-Biotin-TEG-5′ INVERS;” for “tested:”, “3′-(Cholesteryl-TEG)2-SpacerC18-Fluos-Biotin-TEG-5′” for “3′-(Cholesteryl-TEG)2-SpacerC18-Fluos-Biotin-TEG-5′ INVERS; 1255: 3′-(Myristic acid)2-PEG2000-dT-Biotin-TEG-5′”, “1000×g.” for “300×g.”
The effect of compounds of the invention on stabilizing cells and on immobilization was determined.
Centrifugation characteristics: 10 min, 300×g. A: Choleseryl-TEG-Cholesteryl-TEG-(SpacerC18)7-Fluos-Biotin-TEG.
Centrifugation characteristics: 10 min, 300×g. Molecule: Cholesteryl-TEG-Cholesteryl-TEG-(SpacerC18)7-Fluos-Biotin-TEG.
Centrifugation characteristics: 20 min, 300×g.
as §1

Hela = test: Labelling of cells using compounds of the invention; format: cell-based; details: * one cell stained weakly
Source text: as §2

CHO = test: as above; format: cell-based
Source text: as §2

[1] = Sample 1, first block of the table (r4-r12), footnote: 1 nmol/10e6 WBCs
[2] = Sample 1, second block of the table (r13-r21), compound concentration: 1 nmol/10e6 WBCs
[3] = Sample 2, compound concentration: 100 pmol/10e6 WBCs
[4] = Sample 2, compound concentration: 1 nmol/10e6 WBCs

3′-(Cholesteryl-TEG)2-PEG2000-Fluos-Biotin-TEG-5′ INVERS [compound 1248]
Stability of Jurkat culture cells during centrifugation (Jurkat cells): stable during centrifugation processes

5′-(Cholesterol-TEG)1-Doubler-dT-Biotin-3′ [29.891272]
WBC per well (white blood cells (WBCs); [1]): 147132 and 179643 and 181620 | WBC per well (white blood cells (WBCs); [2]): 199973 and 220701 and 228481 | Mean (WBC per well) (white blood cells (WBCs); [3]): 186316.33 | WBC per well (white blood cells (WBCs); [3]): 161504 and 201424 and 196021 | Mean (WBC per well) (white blood cells (WBCs); [4]): 247418.33 | WBC per well (white blood cells (WBCs); [4]): 241232 and 254894 and 246129

5′-(Cholesteryl-TEG)2-PEG2000-Fluos-Biotin_TEG-3′ INVERS [29.891250]
Mean % / WBC recovery rate [%] (WBC (white blood cells); 30 min, WBC treated (molecule of invention + cells)): 77.28% | MW (mean WBC per well) (WBC (white blood cells); 30 min, WBC treated): 231829.75 | Mean % / WBC recovery rate [%] (WBC (white blood cells); 30 min, Well treated (molecule of invention bound to surface)): 21.64% | MW (mean WBC per well) (WBC (white blood cells); 30 min, Well treated): 64909 | Mean % / WBC recovery rate [%] (WBC (white blood cells); 90 min, WBC treated (molecule of invention + cells)): 83.12% and 83.1% | MW (mean WBC per well) (WBC (white blood cells); 90 min, WBC treated): 249346.25 | Mean % / WBC recovery rate [%] (WBC (white blood cells); 90 min, Well treated (molecule of invention bound to surface)): 47.62% and 47.6% | MW (mean WBC per well) (WBC (white blood cells); 90 min, Well treated): 142865 | Mean % / WBC recovery rate [%] (WBC (white blood cells); 120 min, WBC treated (molecule of invention + cells)): 86.23% | MW (mean WBC per well) (WBC (white blood cells); 120 min, WBC treated): 258692.75 | Mean % / WBC recovery rate [%] (WBC (white blood cells); 120 min, Well treated (molecule of invention bound to surface)): 57.02% | MW (mean WBC per well) (WBC (white blood cells); 120 min, Well treated): 171062.75

5′-(Cholesteryl-TEG)2-Spacer C12-dT-Biotin_TEG-3′ INVERS [29.891253]
WBC per well (white blood cells (WBCs); [1]): 105061 and 128195 and 139678 | WBC per well (white blood cells (WBCs); [2]): 218861 and 221471 and 208802 | Mean (WBC per well) (white blood cells (WBCs); [3]): 187757.67 | WBC per well (white blood cells (WBCs); [3]): 178919 and 197130 and 187224 | Mean (WBC per well) (white blood cells (WBCs); [4]): 237052.33 | WBC per well (white blood cells (WBCs); [4]): 239105 and 240632 and 231420

5′-Cholesteryl-TEG-PEG2000-Fluos-3′ [BMO 29.891132]
Labelling (staining) of WBCs (WBCs): √ not all | Labelling (staining) of MDA-MB468 (MDA-MB468): √ | Labelling (staining) of Epithelial cells (Epithelial cells): √ | Labelling (staining) of U937 (U937): √

5′-CholesterylTEG-CholesterylTEG-(SpacerC18)7-Fluos-BiotinTEG-3′ [BMO 29.891222_Ch03]
WBC recovery rate after centrifugation, dependence on concentration (WBC): The higher the molecule concentration, the higher the cell recovery rate after centrifugation | Cell stabilization with different experimenters (WBC; Experimenters 1, 2 and 3): cell stabilization is independent on the experimenter | WBC recovery rate after centrifugation, dependence on concentration (WBC; listed as molecule A): The higher the molecule concentration, the higher the cell recovery rate after centrifugation

5′-alphaTocopherolTEG-PEG2000-Fluos-3′ [BMO 29.891131]
Labelling (staining) of WBCs (WBCs): √ not all | Labelling (staining) of MDA-MB468 (MDA-MB468): √ | Labelling (staining) of Epithelial cells (Epithelial cells): √ | Labelling (staining) of U937 (U937): √

CCCCCCCCCCCCCCCC(=O)OC[C@H](COP(=O)(O)OCCNC(=O)CCc1ccc2n1[B-](F)(F)[N+]1=C(C)C=C(C)C1=C2)OC(=O)CCCCCCCCCCCCCCC.CCN(CC)CC [Phosphatidylethanolamine, N-(4,4-difluoro-5,7-dimethyl-4-bora-3a,4a-diaza-s-indacene-3-propionyl)-1,2-dihexadecanoyl-sn-glycero-3-phosphoethanolamine, triethylammonium salt]
Labelling (staining) of Hela (Hela): x/√ very weak

CCCCCCCCCCCCC/C=C/[C@@H](O)[C@H](COP(=O)([O-])OCC[N+](C)(C)C)NC(=O)CCCCc1ccc2n1[B-](F)(F)[N+]1=C(C)C=C(C)C1=C2 [Sphingomyelin, N-(4,4-difluoro-5,7-dimethyl-4-bora-3a,4a-diaza-s-indacene-3-pentanoyl)sphingosyl phosphocholine]
Labelling (staining) of WBCs (WBCs): (x)- very bad | Labelling (staining) of CHO (CHO): x very weak | Labelling (staining) of Epithelial cells (Epithelial cells): √ | Labelling (staining) of Hela (Hela): √

Biotin-PEG-Lysin-(C18)2
WBC recovery rate after centrifugation, dependence on concentration (WBC; listed as molecule B): The higher the molecule concentration, the higher the cell recovery rate after centrifugation

Sulfo-JA133-phenylboronic acid [BMO: 15.000078]
Labelling (staining) of WBCs (WBCs): √ not all | Labelling (staining) of Epithelial cells (Epithelial cells): √
